Experimental data: patent EP1068805A1, “Dietetic foods and pharmaceutical preparations inhibiting blood coagulation” (CPC INTERNATIONAL INC., priority 1996, dated 1997)
Like-named read-outs stand apart in the source and are kept apart here.

Legend:
Υ-glutamylcarboxylase [1] = molecular target: T1, Υ-glutamylcarboxylase (Bos taurus, UniProt Q07175); assay: Inhibition of carboxylase activity in salt-washed liver microsomes, bovine system; assay type: biochemical; settings: cofactor KH2; mean of triplicate experiments with S.E.M.; read-out: I-50 (µm) in bovine system
T1 sequence (Q07175 2-758): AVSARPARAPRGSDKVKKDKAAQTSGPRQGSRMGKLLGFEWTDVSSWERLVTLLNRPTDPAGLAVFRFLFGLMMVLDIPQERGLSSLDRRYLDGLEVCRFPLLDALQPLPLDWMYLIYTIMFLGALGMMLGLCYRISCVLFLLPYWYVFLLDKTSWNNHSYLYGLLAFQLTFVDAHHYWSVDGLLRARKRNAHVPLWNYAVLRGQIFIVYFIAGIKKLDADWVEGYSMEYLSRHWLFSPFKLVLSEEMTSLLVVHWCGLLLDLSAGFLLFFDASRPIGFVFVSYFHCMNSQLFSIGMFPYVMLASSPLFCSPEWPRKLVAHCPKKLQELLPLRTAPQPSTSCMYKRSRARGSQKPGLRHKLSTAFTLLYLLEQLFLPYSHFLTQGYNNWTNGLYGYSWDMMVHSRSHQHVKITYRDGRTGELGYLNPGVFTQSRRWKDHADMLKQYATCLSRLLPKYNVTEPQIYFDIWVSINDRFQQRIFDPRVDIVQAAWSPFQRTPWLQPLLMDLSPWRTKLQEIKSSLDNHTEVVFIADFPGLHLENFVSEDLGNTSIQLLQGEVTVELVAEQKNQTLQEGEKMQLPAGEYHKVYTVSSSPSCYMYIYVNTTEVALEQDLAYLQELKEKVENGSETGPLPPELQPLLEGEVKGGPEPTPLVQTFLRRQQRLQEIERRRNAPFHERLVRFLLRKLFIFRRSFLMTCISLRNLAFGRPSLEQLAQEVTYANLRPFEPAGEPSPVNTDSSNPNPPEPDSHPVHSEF
Text: (§1) Prenylquinones like phylloquinone (vitamin K1), ubiquinone and plastoquinone function as co-enzymes during the conversion of glutamate into γ-carboxyl-glutamate (Gla), which is an essential step in the formation of the blood coagulation factors. The active form of vitamin K is the quinol (KH2), the oxidation of which provides the energy required for Gla formation. In this reaction KH2 is converted into vitamin K epoxide (KO), which is recycled in two steps by the action of an enzyme called KO-reductase.
(§2) In vitro systems were used to test either the γ-glutamylcarboxylase or KO-reductase. Salt-washed microsomes were prepared from the livers of normal cows and from normal and vitamin K-deficient rats of the Lewis strain.
(§3) Inhibition curves were prepared at a wide concentration range of prenylquinones (UQ-9, UQ-10, and PQ-9) using the cofactor vitamin K either in its quinol, its quinone, or in its epoxide form. From these curves the inhibitor concentrations required for 50% inhibition (I-50) were calculated (dotted lines in Fig. 1) for the various carboxylating enzyme systems from the cow as well as from rats. Incubations were performed under standard conditions, the inhibitors were added after solubilization in Triton X- 114. All points in Fig. 1 represent the means of duplicate experiments. 1-50 values were calculated as shown by the dotted lines.

Υ-glutamylcarboxylase [2] = assay: as above; assay type: biochemical; settings: mean of triplicate experiments with S.E.M., read-out: I-50 (µm) in bovine system
Text: as §1, §2, §3

Υ-glutamylcarboxylase [3] = molecular target: T2, Υ-glutamylcarboxylase (Rattus norvegicus, UniProt O88496); assay: Inhibition of carboxylase activity in salt-washed liver microsomes, rat system; assay type: biochemical, rats of the Lewis strain; settings: cofactor KH2; mean of triplicate experiments with S.E.M.; read-out: I-50 (µM) in rat system
T2 sequence (O88496 1-758): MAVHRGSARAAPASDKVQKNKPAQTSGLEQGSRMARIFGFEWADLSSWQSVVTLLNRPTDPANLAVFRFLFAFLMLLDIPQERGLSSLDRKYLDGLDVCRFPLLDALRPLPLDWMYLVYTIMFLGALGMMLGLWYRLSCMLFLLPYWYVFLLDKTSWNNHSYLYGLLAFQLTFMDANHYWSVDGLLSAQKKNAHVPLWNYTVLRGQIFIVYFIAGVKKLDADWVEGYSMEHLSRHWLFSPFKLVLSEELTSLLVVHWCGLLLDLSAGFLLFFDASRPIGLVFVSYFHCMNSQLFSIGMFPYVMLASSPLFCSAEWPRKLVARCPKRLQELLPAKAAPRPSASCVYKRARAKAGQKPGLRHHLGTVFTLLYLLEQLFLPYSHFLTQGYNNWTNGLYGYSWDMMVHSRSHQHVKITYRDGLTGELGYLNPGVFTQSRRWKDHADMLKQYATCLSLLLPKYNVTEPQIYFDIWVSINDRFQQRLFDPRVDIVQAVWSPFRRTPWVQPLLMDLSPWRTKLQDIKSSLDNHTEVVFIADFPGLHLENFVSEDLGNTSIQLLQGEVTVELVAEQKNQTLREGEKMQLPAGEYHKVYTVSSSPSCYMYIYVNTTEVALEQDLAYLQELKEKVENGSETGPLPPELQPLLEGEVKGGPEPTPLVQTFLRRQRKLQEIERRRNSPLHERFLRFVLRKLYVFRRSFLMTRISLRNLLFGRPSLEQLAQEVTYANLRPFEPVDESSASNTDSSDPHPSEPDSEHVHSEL
Text: as §1, §2, §3

plasma prothrombin = assay: Effect of dietary oils on plasma prothrombin concentration (rat feeding study); assay type: in vivo, Wistar rats; settings: animal data extrapolated to adult reference person of about 60 kg

IC50 (Υ-glutamylcarboxylase [1]) [µM]	IC50 (Υ-glutamylcarboxylase [2]; cofactor K) [µM]	IC50 (Υ-glutamylcarboxylase [2]; cofactor KO) [µM]	IC50 (Υ-glutamylcarboxylase [3]) [µM]	SMILES	effective dose extrapolated to humans (plasma prothrombin)
105 ± 14	86 ± 12	72 ± 8	25 ± 6	COC1=C(OC)C(=O)C(CC=C(C)CCC=C(C)CCC=C(C)CCC=C(C)CCC=C(C)CCC=C(C)CCC=C(C)CCC=C(C)CCC=C(C)C)=C(C)C1=O [UQ-9, ubiquinone-9]	about 40 mg
110 ± 17	76 ± 5	91 ± 15	36 ± 7	COC1=C(OC)C(=O)C(CC=C(C)CCC=C(C)CCC=C(C)CCC=C(C)CCC=C(C)CCC=C(C)CCC=C(C)CCC=C(C)CCC=C(C)CCC=C(C)C)=C(C)C1=O [UQ-10, ubiquinone-10]	

SMILES	IC50 (Υ-glutamylcarboxylase [1]) [µM]	IC50 (Υ-glutamylcarboxylase [2]; cofactor K) [µM]	IC50 (Υ-glutamylcarboxylase [2]; cofactor KO) [µM]	IC50 (Υ-glutamylcarboxylase [3]) [µM]	effective dose extrapolated to humans (plasma prothrombin)
CC(C)=CCC/C(C)=C/CC/C(C)=C/CC/C(C)=C/CC/C(C)=C/CC/C(C)=C/CC/C(C)=C/CC/C(C)=C/CC/C(C)=C/CC1=CC(=O)C(C)=C(C)C1=O [PQ-9, plastoquinone]	85 ± 11	59 ± 4	41 ± 7	39 ± 10	
